Measured values as given in publication PMC9403976, “Elucidating the path to Plasmodium prolyl-tRNA synthetase inhibitors that overcome halofuginone resistance” (Nature Communications, 2022).
Several values for one entry are separate records, joined by “and”; a condition that tells them apart may be missing. Equal values may be shown once. Read-outs that look alike come from different tables or passages of the source.

Key:
P. falciparum Dd2-2D4 = test: P. falciparum asexual blood stage (ABS) growth assay, SYBR Green, 72 h, wild-type parasites; type: cell-based, Plasmodium falciparum; settings: for EC50: Plasmodium falciparum, DD2
[1] = test system: halofuginone-induced P. falciparum (elevated proline homeostasis); test: P. falciparum ABS growth assay, SYBR Green, 72 h, halofuginone-induced parasites; type: cell-based, Plasmodium falciparum; settings: for EC50: Plasmodium falciparum, DD2
Description: (§1) Parasites were maintained under standard culture conditions as described previously[56],[57]. […] The P. falciparum Dd2 cell lines used in this study (Dd2-2D4, halofuginone-induced, and HFGR-I) have previously undergone whole genome sequencing in our labs. They were also routinely assayed and EC50 values determined using the ABS growth assay (see below) with a panel of standard antimalarial compounds, including halofuginone which has differential activity for the three Dd2 lines used in these experiments. Data were cross-referenced for consistency with literature reported values and data previously acquired in the lab.
(§2) This assay was performed as previously described. In short, P. falciparum erythrocytic-stage parasites at 1% parasitemia and 1% hematocrit in RPMI + 0.5% Albumax were seeded at 40 μL/well in 384-well plates with test compounds in triplicate, dose-response format with 10 μM dihydroartemisinin as a kill-control and blank (no compound) wells as a growth-control. […] After 72 h, growth was quantified by measuring fluorescence (Molecular Devices SpectraMax iD5) following SYBR Green 1 staining. Data were analyzed in Excel and plotted in PRISM (V. 8.4.3–9.1.0, GraphPad).

[2] = test system: HFGR-I P. falciparum (elevated proline homeostasis and PfcProRS^L482H); test: P. falciparum ABS growth assay, SYBR Green, 72 h, HFGR-I parasites; type: cell-based, Plasmodium falciparum; settings: for EC50: Plasmodium falciparum, DD2, read-out: Dd2 (EC50 [nM]) HFGR1 mean
Description: as §1, §2

HsProRS = HsProRS (Homo sapiens, UniProt P07814); test: TR-FRET ligand displacement assay with tracer MAT379 (CoraFluor-1-Halo and anti-His6 antibody formats); type: binding; design: made in house; host or cells: E. coli SoluBL-21
Chain of HsProRS (P07814 996-1512): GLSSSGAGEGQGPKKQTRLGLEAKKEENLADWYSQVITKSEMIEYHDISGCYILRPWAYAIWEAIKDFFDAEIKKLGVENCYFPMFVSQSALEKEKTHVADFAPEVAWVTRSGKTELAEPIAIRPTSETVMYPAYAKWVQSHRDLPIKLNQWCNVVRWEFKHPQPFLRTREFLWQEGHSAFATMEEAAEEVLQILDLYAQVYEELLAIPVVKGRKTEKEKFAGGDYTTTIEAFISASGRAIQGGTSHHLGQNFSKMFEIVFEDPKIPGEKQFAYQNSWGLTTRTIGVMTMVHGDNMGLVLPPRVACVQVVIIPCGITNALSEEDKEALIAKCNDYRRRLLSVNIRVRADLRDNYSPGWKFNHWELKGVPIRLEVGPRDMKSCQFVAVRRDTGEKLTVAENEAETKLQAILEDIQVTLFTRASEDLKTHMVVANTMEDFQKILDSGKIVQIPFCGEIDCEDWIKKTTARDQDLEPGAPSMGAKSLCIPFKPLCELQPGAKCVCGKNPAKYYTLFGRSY

PfcProRS = molecular target: T1, PfcProRS (Plasmodium falciparum, UniProt Q8I5R7); type: binding; settings: for Normalized response, dose-response replicates (SI Fig 14): replicates 1-3; for PfcProRS -- best Kd: SI Fig 16a, values on -log scale
T1 construct: made in house; host or cells: E. coli SoluBL-21
T1 sequence (Q8I5R7 249-746): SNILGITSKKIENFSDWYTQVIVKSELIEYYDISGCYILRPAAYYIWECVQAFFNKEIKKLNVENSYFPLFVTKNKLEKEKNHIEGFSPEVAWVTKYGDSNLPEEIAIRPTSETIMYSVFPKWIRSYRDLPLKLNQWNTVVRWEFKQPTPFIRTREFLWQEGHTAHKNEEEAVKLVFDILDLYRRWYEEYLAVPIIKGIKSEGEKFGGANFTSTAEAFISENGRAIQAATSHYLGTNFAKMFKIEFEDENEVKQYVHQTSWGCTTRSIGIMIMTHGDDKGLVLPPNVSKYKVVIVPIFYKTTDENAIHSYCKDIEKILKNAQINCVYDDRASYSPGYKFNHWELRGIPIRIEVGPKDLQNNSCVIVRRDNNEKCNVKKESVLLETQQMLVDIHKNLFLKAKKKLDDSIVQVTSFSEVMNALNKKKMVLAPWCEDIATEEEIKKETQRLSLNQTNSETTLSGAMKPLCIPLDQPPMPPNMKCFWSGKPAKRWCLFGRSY

[3] = SI Fig 16b, values on -log scale, read-out: ABS - Dd2-2D4 (converted)
[4] = HsProRS (KD [nM]) + 100 μM proline mean, + 100 μM proline

| Structure (SMILES) | EC50 (P. falciparum Dd2-2D4; [3]) [nM] | EC50 [2] [nM] | Kd (HsProRS; [4]) [nM] | Normalized response, dose-response replicates (SI Fig 14) (PfcProRS; Log[inhibitor] (M) -5.000) | Normalized response, dose-response replicates (SI Fig 14) (PfcProRS; Log[inhibitor] (M) -5.301) | Normalized response, dose-response replicates (SI Fig 14) (PfcProRS; Log[inhibitor] (M) -5.601) | Normalized response, dose-response replicates (SI Fig 14) (PfcProRS; Log[inhibitor] (M) -5.904) | Normalized response, dose-response replicates (SI Fig 14) (PfcProRS; Log[inhibitor] (M) -6.208) | Normalized response, dose-response replicates (SI Fig 14) (PfcProRS; Log[inhibitor] (M) -6.509) | Normalized response, dose-response replicates (SI Fig 14) (PfcProRS; Log[inhibitor] (M) -6.796) | Normalized response, dose-response replicates (SI Fig 14) (PfcProRS; Log[inhibitor] (M) -7.108) | Normalized response, dose-response replicates (SI Fig 14) (PfcProRS; Log[inhibitor] (M) -7.409) | Normalized response, dose-response replicates (SI Fig 14) (PfcProRS; Log[inhibitor] (M) -7.710) | Normalized response, dose-response replicates (SI Fig 14) (PfcProRS; Log[inhibitor] (M) -8.000) | Normalized response, dose-response replicates (SI Fig 14) (PfcProRS; Log[inhibitor] (M) -8.301) | Normalized response, dose-response replicates (SI Fig 14) (PfcProRS; Log[inhibitor] (M) -8.602) | Normalized response, dose-response replicates (SI Fig 14) (PfcProRS; Log[inhibitor] (M) -9.000) | Normalized response, dose-response replicates (SI Fig 14) (PfcProRS; Log[inhibitor] (M) -9.301) | PfcProRS -- best Kd (PfcProRS) | other results |
| --- | --- | --- | --- | --- | --- | --- | --- | --- | --- | --- | --- | --- | --- | --- | --- | --- | --- | --- | --- | --- |
| Nc1ncnc2c1ncn2[C@@H]1O[C@H](COS(=O)(=O)NC(=O)[C@H]2CCCN2)[C@@H](O)[C@H]1O [D-ProSA, reference compound] | 2550 | 2430 | – | – | – | – | – | – | – | – | – | – | – | – | – | – | – | – | – | EC50 (P. falciparum Dd2-2D4; read-out: Dd2 (EC50 [nM]) wildtype (Dd2-2D4) mean): 2550 nM; EC50 ([1]; read-out: Dd2 (EC50 [nM]) halofuginone-induced mean): 2730 nM |
| CC(C)N(C(=O)Nc1nccnc1C(=O)NC1Cc2ccccc2C1)C(C)C [MAT107 (5)] | – | 6850 | 1020 | – | – | – | – | – | – | – | – | – | – | – | – | – | – | – | – | % signal at 10 μM, wildtype (Dd2-2D4) (P. falciparum Dd2-2D4; wildtype (Dd2-2D4), 10 μM): 80.9%; EC50 ([1]; halofuginone-induced, bound given in μM, read-out: Dd2 EC50 halofuginone-induced, bound): > 10000 nM; % signal at 10 μM, halofuginone-induced ([1]; halofuginone-induced, 10 μM): 58.7%; IC50 (HsProRS): > 10000 nM; HsProRS % signal at 10 μM (HsProRS; no added proline/ATP (-), 10 μM): 63.6% |
| CC(C)(C)OC(=O)NCCCCCC(=O)NC1CCN(C(=O)Nc2nccnc2C(=O)NC2Cc3ccccc3C2)CC1 [compound 41] | 2110 | – | 561 | 2.54E-01 and 1.79E-01 and 1.37E-01 | 2.59E-01 and 1.90E-01 and 1.97E-01 | 2.56E-01 and 2.59E-01 and 2.72E-01 | 5.14E-01 and 5.00E-01 and 4.61E-01 | 7.49E-01 and 5.18E-01 and 5.00E-01 | 8.38E-01 and 7.48E-01 and 7.12E-01 | 9.37E-01 and 8.75E-01 and 9.23E-01 | 9.89E-01 and 8.01E-01 and 8.98E-01 | 9.10E-01 and 9.82E-01 and 9.58E-01 | 9.67E-01 and 1.08E+00 and 8.83E-01 | 9.89E-01 and 1.01E+00 and 9.34E-01 | 1.15E+00 and 9.52E-01 and 9.87E-01 | 1.13E+00 and 1.02E+00 and 1.04E+00 | 9.78E-01 and 9.94E-01 and 1.01E+00 | 1.02E+00 and 9.71E-01 and 8.87E-01 | 6.740 | dose-response value, Replicates 1-3 (SI Fig 2f) ([2]; Log[inhibitor] (M) -6.638): 97; Kd (HsProRS; HsProRS - best Kd, SI Fig 16a, values on -log scale): 139 nM |
| NCCCCCC(=O)NC1CCN(C(=O)Nc2nccnc2C(=O)NC2Cc3ccccc3C2)CC1 [compound 42] | 3120 | – | 780 | 2.49E-01 and 1.76E-01 and 2.08E-01 | 3.00E-01 and 2.27E-01 and 1.95E-01 | 3.22E-01 and 3.31E-01 and 4.26E-01 | 5.98E-01 and 5.09E-01 and 6.07E-01 | 6.69E-01 and 7.19E-01 and 7.06E-01 | 8.50E-01 and 8.42E-01 and 7.76E-01 | 8.57E-01 and 7.95E-01 and 8.50E-01 | 9.38E-01 and 9.24E-01 and 9.33E-01 | 8.48E-01 and 9.09E-01 and 8.32E-01 | 1.01E+00 and 1.02E+00 and 9.56E-01 | 9.91E-01 and 1.13E+00 and 9.71E-01 | 9.70E-01 and 1.02E+00 and 1.00E+00 | 1.01E+00 and 9.47E-01 and 9.02E-01 | 1.03E+00 and 8.54E-01 and 9.74E-01 | 1.02E+00 and 9.76E-01 and 9.47E-01 | 6.530 | dose-response value, Replicates 1-3 (SI Fig 2f) ([2]; Log[inhibitor] (M) -8.699): 97; Kd (HsProRS; HsProRS (KD [nM]) mean, no added proline/ATP (-)): 674 nM |
